From the supplement of paper PMC10307832

Assays:
Test in all cases: relative viability (nuclei count vs DMSO), 5 days (fraction); higher = more cells survive
[1] = tested on: NCI-H358
Outline: (§1)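 Relative viability was taken as the ratio of nuclei in treated wells to nuclei in vehicle wells. Lung cancer cell lines in 1536-well plates received compounds by pin tool one day after seeding, either one drug alone or a fixed anchor-drug dose plus five library-drug doses (not always all listed) in √10 steps. Nuclei were counted on 4× images after 5 days of treatment, and values are medians of duplicate plates.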

[2] = tested on: NCI-H1915
Outline: as §1

[3] = tested on: COR-L 105
Outline: as §1

[4] = tested on: NCI-H1793
Outline: as §1

[5] = tested on: NCI-H2170
Outline: as §1

[6] = tested on: SK-MES-1
Outline: as §1

[7] = tested on: NCI-H520
Outline: as §1

[8] = tested on: A-427
Outline: as §1

[9] = tested on: NCI-H522
Outline: as §1

[10] = tested on: NCI-H1944
Outline: as §1

[11] = tested on: NCI-H2087
Outline: as §1

[12] = tested on: NCI-H1975
Outline: as §1

[13] = tested on: HCC-827
Outline: as §1

[14] = tested on: HCC-44
Outline: as §1

[15] = tested on: LOU-NH91
Outline: as §1

[16] = tested on: NCI-H2023
Outline: as §1

[17] = tested on: LXF-289
Outline: as §1

[18] = tested on: NCI-H1792
Outline: as §1

[19] = tested on: SW 1573
Outline: as §1

[20] = tested on: LCLC-103H
Outline: as §1

[21] = tested on: NCI-H1993
Outline: as §1

[22] = tested on: SW 900
Outline: as §1

[23] = tested on: H3255
Outline: as §1

`CN1CCN(CCOc2cc(OC3CCOCC3)c3c(Nc4c(Cl)ccc5c4OCO5)ncnc3c2)CC1` [Saracatinib] + CCNC(=O)c1noc(-c2cc(C(C)C)c(O)cc2O)c1-c1ccc(CN2CCOCC2)cc1 [Luminespib] (partner 0.01 µM) was tested, and the relative viability ([1]; first compound 0.02 µM) was 0.174, the relative viability ([1]; first compound 0.2 µM) was 0.208 and the relative viability ([1]; first compound 0.6325 µM) was 0.309. For the same compound, the relative viability ([1]; first compound 2 µM) was 0.318, the relative viability ([2]; first compound 0.02 µM) was 0.742 and the relative viability ([2]; first compound 0.2 µM) was 0.703. For the same compound, the relative viability ([2]; first compound 0.6325 µM) was 0.872, the relative viability ([2]; first compound 2 µM) was 0.654 and the relative viability ([3]; first compound 0.02 µM) was 0.893. The relative viability ([3]; first compound 0.2 µM) was 0.692, the relative viability ([3]; first compound 0.6325 µM) was 0.608 and the relative viability ([3]; first compound 2 µM) was 0.467. For the same compound, the relative viability ([4]; first compound 0.02 µM) was 0.2, the relative viability ([4]; first compound 0.6325 µM) was 0.173 and the relative viability ([4]; first compound 2 µM) was 0.177. It also gave a relative viability ([5]; first compound 0.02 µM) of 0.658, a relative viability ([5]; first compound 0.2 µM) of 0.596 and a relative viability ([5]; first compound 0.6325 µM) of 0.477. For the same compound, the relative viability ([5]; first compound 2 µM) was 0.337, the relative viability ([6]; first compound 0.02 µM) was 0.627 and the relative viability ([6]; first compound 0.2 µM) was 0.828. It also gave a relative viability ([6]; first compound 0.6325 µM) of 0.348, a relative viability ([6]; first compound 2 µM) of 0.207 and a relative viability ([7]; first compound 0.02 µM) of 0.213. It also gave a relative viability ([7]; first compound 0.6325 µM) of 0.221, a relative viability ([7]; first compound 2 µM) of 0.204 and a relative viability ([8]; first compound 0.02 µM) of 0.985. For the same compound, the relative viability ([8]; first compound 0.2 µM) was 0.755, the relative viability ([8]; first compound 0.6325 µM) was 0.907 and the relative viability ([8]; first compound 2 µM) was 0.888. For the same compound, the relative viability ([9]; first compound 0.02 µM) was 1.13, the relative viability ([9]; first compound 0.2 µM) was 0.943 and the relative viability ([9]; first compound 0.6325 µM) was 1.11. The relative viability ([9]; first compound 2 µM) was 0.949, the relative viability ([10]; first compound 0.02 µM) was 0.826 and the relative viability ([10]; first compound 0.6325 µM) was 0.846. The relative viability ([10]; first compound 2 µM) was 0.459, the relative viability ([11]; first compound 0.02 µM) was 0.143 and the relative viability ([11]; first compound 0.2 µM) was 0.18. For the same compound, the relative viability ([11]; first compound 0.6325 µM) was 0.166, the relative viability ([11]; first compound 2 µM) was 0.253 and the relative viability ([12]; first compound 0.02 µM) was 0.202. It also gave a relative viability ([12]; first compound 0.2 µM) of 0.243, a relative viability ([12]; first compound 0.6325 µM) of 0.182 and a relative viability ([12]; first compound 2 µM) of 0.188. For the same compound, the relative viability ([13]; first compound 0.02 µM) was 0.709, the relative viability ([13]; first compound 0.2 µM) was 0.311 and the relative viability ([13]; first compound 0.6325 µM) was 0.241. For the same compound, the relative viability ([13]; first compound 2 µM) was 0.136, the relative viability ([14]; first compound 0.02 µM) was 0.972 and the relative viability ([14]; first compound 0.2 µM) was 0.921. For the same compound, the relative viability ([14]; first compound 0.6325 µM) was 1.32, the relative viability ([14]; first compound 2 µM) was 0.952 and the relative viability ([15]; first compound 0.02 µM) was 0.356. It also gave a relative viability ([15]; first compound 0.2 µM) of 0.29, a relative viability ([15]; first compound 0.6325 µM) of 0.385 and a relative viability ([15]; first compound 2 µM) of 0.286. The relative viability ([16]; first compound 0.02 µM) was 0.773, the relative viability ([16]; first compound 0.6325 µM) was 0.735 and the relative viability ([16]; first compound 2 µM) was 0.471. For the same compound, the relative viability ([17]; first compound 0.02 µM) was 0.619, the relative viability ([17]; first compound 0.2 µM) was 0.633 and the relative viability ([17]; first compound 0.6325 µM) was 0.796. It also gave a relative viability ([17]; first compound 2 µM) of 0.585, a relative viability ([18]; first compound 0.02 µM) of 0.369 and a relative viability ([18]; first compound 0.2 µM) of 0.463. It also gave a relative viability ([18]; first compound 0.6325 µM) of 0.449, a relative viability ([18]; first compound 2 µM) of 0.358 and a relative viability ([19]; first compound 0.02 µM) of 0.195. The relative viability ([19]; first compound 0.2 µM) was 0.217, the relative viability ([19]; first compound 0.6325 µM) was 0.374 and the relative viability ([19]; first compound 2 µM) was 0.15. It also gave a relative viability ([20]; first compound 0.02 µM) of 1.02, a relative viability ([20]; first compound 0.2 µM) of 0.902 and a relative viability ([20]; first compound 0.6325 µM) of 0.975. It also gave a relative viability ([20]; first compound 2 µM) of 0.9, a relative viability ([21]; first compound 0.02 µM) of 0.907 and a relative viability ([21]; first compound 0.2 µM) of 0.716. It also gave a relative viability ([21]; first compound 0.6325 µM) of 0.783, a relative viability ([21]; first compound 2 µM) of 0.561 and a relative viability ([22]; first compound 0.02 µM) of 0.187. The relative viability ([22]; first compound 0.2 µM) was 0.152, the relative viability ([22]; first compound 0.6325 µM) was 0.176 and the relative viability ([22]; first compound 2 µM) was 0.151. For the same compound, the relative viability ([23]; first compound 0.02 µM) was 0.91, the relative viability ([23]; first compound 0.2 µM) was 0.914 and the relative viability ([23]; first compound 0.6325 µM) was 0.745. It also gave a relative viability ([23]; first compound 2 µM) of 0.477.
